In patent US9555038B2, “Heterocycle-substituted tetracyclic compounds and methods of use thereof for the treatment of viral diseases” (Merck Sharp & Dohme Corp., priority 2013, dated 2017):
Like-named read-outs stand apart in the source and are kept apart here.

Assays:
[1] = system: HCV replicon 1A; assay: Cell-based HCV Replicon Assay A, replicon 1A
How it was run: (§1)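 Replicon cells were seeded at 2000 cells/well with test compound in 10 serial dilutions, starting at 333.3 nM to 1.667 nM, in 0.5% DMSO and 5% FBS. On day 3, cells were washed and lysed, and replicon RNA was quantified by multiplex TaqMan RT-PCR normalised to cyclophilin.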

[2] = system: HCV replicon 1AY93H; assay: Cell-based HCV Replicon Assay A, replicon 1AY93H
How it was run: as §1

[3] = system: HCV replicon 1B; assay: Cell-based HCV Replicon Assay B, replicon 1B
How it was run: (§2)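 Replicon cells seeded in 5% FBS; compounds added 24 h later, then 3 days' incubation. Replicon RNA quantified by real-time RT-PCR with genotype-specific primers/probes (NS5B amplicon for 1b). EC50 = concentration raising CT by 1 over projected baseline.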

[4] = system: HCV replicon 2B; assay: Cell-based HCV Replicon Assay A, replicon 2B
How it was run: as §1

[5] = system: HCV replicon 1AQ30D; assay: Cell-based HCV Replicon Assay B, replicon 1AQ30D
How it was run: as §2

[6] = read-out: 1A Y93H IC50, replicon 1AY93H
[7] = Hepatitis C virus, read-out: 1A Q30D IC50 (nM), replicon 1AQ30D
[8] = Hepatitis C virus, read-out: 1A Y93H IC50 (nM), replicon 1AY93H
[9] = read-out: 1A Q30D IC50, replicon 1AQ30D
[10] = Hepatitis C virus, read-out: 2B IC50 (nM), replicon 2B

| SMILES | IC50 [1] | IC50 ([2]; replicon 1AY93H, read-out: 1A Y93H IC50) | IC50 [3] | IC50 ([4]; replicon 2B, read-out: 2B IC50) | IC50 ([5]; replicon 1AQ30D, read-out: 1A Q30D IC50) | IC50 ([1]; Hepatitis C virus) | IC50 [2, 6] | IC50 ([3]; Hepatitis C virus) | IC50 ([4]; read-out: 2B IC50, replicon 2B) | IC50 [5, 7] | IC50 [2, 8] | IC50 [5, 9] | IC50 [4, 10] |
| --- | --- | --- | --- | --- | --- | --- | --- | --- | --- | --- | --- | --- | --- |
| COC(=O)N[C@H](C(=O)N1CCC[C@H]1c1ncc(-c2cc(F)c3c(c2)OC(c2cnc(CC(C)(C)C)s2)n2c-3cc3cc(-c4cnc([C@@H]5CCCN5C(=O)[C@@H](NC(=O)OC)C(C)C)[nH]4)ccc32)[nH]1)C(C)C (single isomer, unassigned) [Compound 522] | 1.4 pM | 0.011 nM | 1 pM | 0.015 nM | 0.163 nM | – | – | – | – | – | – | – | – |
| COC(=O)N[C@H](C(=O)N1CCC[C@H]1c1ncc(-c2cc(F)c3c(c2)OC(c2cnc(C4CCOCC4)s2)n2c-3cc3cc(-c4cnc([C@@H]5CCCN5C(=O)[C@@H](NC(=O)OC)C(C)C)[nH]4)ccc32)[nH]1)C(C)C (single isomer, unassigned) [Compound 531] | – | – | – | – | – | 2.5 pM | 0.022 nM | 3.8 pM | 0.056 nM | 0.328 nM | – | – | – |
| COC(=O)N[C@H](C(=O)N1CCC[C@H]1c1ncc(-c2cc(F)c3c(c2)OC(c2cnc(Nc4ccc(F)cc4)s2)n2c-3cc3cc(-c4cnc([C@@H]5CCCN5C(=O)[C@@H](NC(=O)OC)C(C)C)[nH]4)ccc32)[nH]1)C(C)C (single isomer, unassigned) [Compound 534] | – | – | – | – | – | 2.4 pM | – | 3 pM | 0.03 nM | 0.267 nM | 0.094 nM | – | – |
| COC(=O)N[C@H](C(=O)N1CCC[C@H]1c1ncc(-c2cc(F)c3c(c2)OC(c2cnc(Nc4ccc(F)cc4)s2)n2c-3cc3cc(-c4cnc([C@@H]5CCCN5C(=O)[C@@H](NC(=O)OC)C(C)C)[nH]4)ccc32)[nH]1)C(C)C (single isomer, unassigned) [Compound 535] | 3.1 pM | – | 3.2 pM | – | – | – | 0.084 nM | – | 0.012 nM | – | – | 0.172 nM | – |
| COC(=O)NC(C(=O)N1CCC[C@H]1c1ncc(-c2ccc3c(c2)cc2n3C(c3cnc(CC(C)C)s3)Oc3cc(-c4cnc([C@@H]5CCCN5C(=O)[C@@H](NC(=O)OC)C(C)C)[nH]4)cc(F)c3-2)[nH]1)C1CCOC(C)(C)C1 (single isomer, unassigned) [Compound 544] | 3.1 pM | – | – | – | – | – | 0.005 nM | 3.6 pM | 0.006 nM | – | – | 0.051 nM | – |
| COC(=O)NC(C(=O)N1CCC[C@H]1c1ncc(-c2ccc3c(c2)cc2n3C(c3cnc(CC(C)C)s3)Oc3cc(-c4cnc([C@@H]5CCCN5C(=O)[C@@H](NC(=O)OC)C(C)C)[nH]4)cc(F)c3-2)[nH]1)C1CCOC(C)(C)C1 (single isomer, unassigned) [Compound 545] | 2.6 pM | – | 2.8 pM | – | – | – | 0.004 nM | – | 0.006 nM | – | – | 0.015 nM | – |
| COC(=O)NC(C(=O)N1CCC[C@H]1c1ncc(-c2ccc3c(c2)cc2n3C(c3cnc(CC(C)C)s3)Oc3cc(-c4cnc([C@@H]5CCCN5C(=O)[C@@H](NC(=O)OC)C(C)C)[nH]4)cc(F)c3-2)[nH]1)C1C[C@@H](C)O[C@@H](C)C1 (single isomer, unassigned) [Compound 547] | 2.8 pM | – | – | – | – | – | 0.005 nM | 1.8 pM | 0.006 nM | 0.028 nM | – | – | – |
| CCCc1ncc(C2Oc3cc(-c4cnc([C@@H]5CCCN5C(=O)[C@@H](NC(=O)OC)C(C)C)[nH]4)cc(F)c3-c3cc4cc(-c5cnc([C@@H]6CCCN6C(=O)[C@@H](NC(=O)OC)C(C)C)[nH]5)ccc4n32)s1 (stereo partly shown) [Compound 15] | – | – | 3 pM | – | – | 2.9 pM | 0.0059 nM | – | 0.025 nM | 0.118 nM | – | – | – |
| COC(=O)N[C@H](C(=O)N1CCC[C@H]1c1nc(-c2cc(F)c3c(c2)OC(c2cnc(-c4cnccn4)s2)n2c-3cc3cc(-c4cnc([C@@H]5CCCN5C(=O)[C@@H](NC(=O)OC)C(C)C)[nH]4)ccc32)c[nH]1)C(C)C (stereo partly shown) [Compound 424] | – | – | – | – | – | 1.9 pM | – | 694 pM | – | 0.058 nM | 0.0554 nM | – | 0.003 nM |
| COC(=O)NC(C(=O)N1CCC[C@H]1c1ncc(-c2ccc3c(c2)cc2n3C(c3cnc(CC(C)(C)C)s3)Oc3cc(-c4cnc([C@@H]5CCCN5C(=O)[C@@H](NC(=O)OC)C(C)C)[nH]4)cc(F)c3-2)[nH]1)C1CCOC(C)(C)C1 (stereo partly shown) [Compound 443] | – | – | – | – | – | 3.1 pM | – | 3.1 pM | – | 0.028 nM | 0.008 nM | – | 0.006 nM |
| COC(=O)N[C@H](C(=O)N1CCC[C@H]1c1ncc(-c2cc(F)c3c(c2)OC(c2cnc(C4CCCCC4)s2)n2c-3cc3cc(-c4cnc([C@@H]5CCCN5C(=O)[C@@H](NC(=O)OC)C(C)C)[nH]4)ccc32)[nH]1)C(C)C (stereo partly shown) [Compound 527] | – | – | – | – | – | 2.4 pM | 0.005 nM | 2.9 pM | 0.014 nM | 0.065 nM | – | – | – |
